Assay results as given in patent US20080103198A1, “METHODS FOR TREATMENT OF COCHLEAR AND VESTIBULAR DISORDERS” (priority 2006, published 2008).
Counter-ions that a name gives are not always drawn.

What was measured:
PC12 cells = assay: PC12 cell serum withdrawal model (MTS assay); assay type: cell-based; settings: control cells = 100%
Excerpt: Serum withdrawal is a cytotoxic environmental challenge that results in cell death in cultured cell lines as well as in primary cells of various tissue origins, including nerve cells. In particular, pheochromocytoma (PC) 12 cells have been widely employed as an in vitro neuronal cell model for a wide variety of neurodegenerative and cell death related disorders (Muriel, et al, Mitochondrial free calcium levels (Rhod-2 fluorescence) and ultrastructural alterations in neuronally differentiated PC12 cells during ceramide-dependent cell death, J. Comp. Neurol., 2000, 426(2), 297-315; Dermitzaki, et al, Opioids transiently prevent activation of apoptotic mechanisms following short periods of serum withdrawal, J. Neurochem., 2000, 74(3), 960-969; Carlile, et al, Reduced apoptosis after nerve growth factor and serum withdrawal: conversion of tetrameric glyceraldehyde-3-phosphate dehydrogenase to a dimer, Mol. Pharmacol., 2000, 57(1), 2-12).
PC12 cells were cultured in sterile media (RPMI 1640) supplemented with 10% heat-inactivated horse serum and 5% fetal bovine serum (FBS). The culture medium also contained Penicillin-Streptomycin-Neomycin antibiotic (50µg, 50µg, 100µg, respectively). Medium was exchanged every other day and the cells were passed in log phase near confluence.
The control cells were cultured in regular media without any treatment. An enantiomer of Formula 7 or Formula 8 (10µM) was mixed well in the medium and then applied to the cells. For the 2 day assay, an enantiomer of Formula 7 or Formula 8 (10µM) was only applied to the cells once at the time of serum withdrawal. For the 7 day assay, an enantiomer of Formula 7 or Formula 8 (10. mu.M) was applied to the cells at the time of serum withdrawal and every 48 hr thereafter when cells were changed with fresh new serum-free medium. In the serum withdrawal group, the cells were cultured in serum-free medium with no additional enantiomer of Formula 7 or Formula 8. Cell survival was determined by the 3-(4,5-dimethylthiazol-2-yl)-5-(3-carboxy-methoxyphenyl)-2-(4-sulfophenyl)-2H-tetrazolium inner salt (MTS) assay at 2 or 7 days after serum withdrawal.
At the end of the experiment, cells were washed with fresh medium and incubated with MTS solution in a humidified 37° C. with 5% CO2 incubator for 1.5 hr. After the incubation period, the cells were immediately analyzed using a Softmax program (Molecular Devices). […] The assay is based on the cellular conversion of the tetrazolium salt, MTS, into a formazan that is soluble in tissue culture medium and measured directly at 490 nm in 96-well assay plates. The absorbance is directly proportional to the number of living cells in culture. The arbitrary absorbance reading in control cells is expressed as 100% survival rate.

[1] = tested on: transient cerebral ischemia (MCAO); assay: Transient cerebral ischemia middle cerebral artery occlusion (MCAO) rat model; assay type: in vivo; settings: MK 801 3 mg/kg i.p.; N=12
Experimental: The enantiomer of Formula 7 was investigated in the transient cerebral ischemia middle cerebral artery occlusion (MCAO) rat model (as described in Nagasawa H. and Kogure K., Stroke, 1989, 20, 1037; and, Zea Longa E., Weinstein P. R., Carlson S, and Cummins R., Stroke, 1989, 20, 84) using male Wistar rats at 10 and 100 mg/kg (i.v.). MK 801 (Dizocilpine maleate; CAS Registry number 77086-22-7, a commercially available neuroprotectant compound) was used as a positive control (3 mg/kg, i.p.).
Rats (n=12) were randomly allocated to one of four experimental groups and were anesthetized. Blood flow from the internal carotid artery, anterior cerebral artery and posterior cerebral artery into the middle cerebral artery was blocked by this procedure. One hour after blockage, animals were treated over a 1 hour period with vehicle (administered i.v. over the one hour period), control (administered as a single i.p. dose at the start of the one hour period) and two doses of the enantiomer of Formula 7 (administered i.v. over the one hour period). Two hours after blockage, reperfusion was performed.
The animals were sacrificed and […] coronal sections of each brain were prepared. One in every forty sections (i.e. every […]) from the front to the occipital cortex was used to quantify the extent of the cerebral lesion. Slides were prepared using sections stained (according to the Nissl procedure) with cresyl violet and were examined under a light microscope.
Regional ischemic surface areas in the coronal sections of individual rats were determined according to the presence of cells with morphological changes. The areas of neuronal injury or infarction were measured and then added. The cortex and striatum volume were calculated for each animal (total ischemic surface area×0.8 mm (thickness)).
The mean volumes (.+−.S.E.M.) for each animal randomly assigned to the four experimental groups were compared using one-way ANOVA (one way ANOVA is a statistical method which compares 3 or more unmatched groups) followed by Dunnett's t-test (both methods incorporated in Statview 512+software, BarinPower, Calabasas, Calif., USA).

Row | Structure (SMILES) | 2 Day Survival Rate (PC12 cells; 10 µM applied once at serum withdrawal) | 7 Day Survival Rate (PC12 cells; 10 µM at serum withdrawal and every 48 hr) | Mean Infarct Volume ± S.E.M., Cortex Volume [1] | Mean Infarct Volume ± S.E.M., Striatum [1] | Mean Infarct Volume ± S.E.M., Total [1]
1 | NC(=O)OC[C@H](OC(N)=O)c1ccccc1Cl [Formula 8] | 66.4 ± 5.4^1% | 85.2 ± 0.6^2% |  |  | 
2 | C[C@]12N[C@H](Cc3ccccc31)c1ccccc12 [MK 801, Dizocilpine maleate, reference compound] |  |  | 95.8 ± 24.5^1 mm^3 | 56.1 ± 5.3^2 mm^3 | 151.9 ± 28.7^1 mm^3
